Structures can show the parent of a compound that is named as a salt.

The record followed here is US12227517B2, “Pyridazinyl-thiazolecarboxamide compound” (Astellas Pharma Inc., priority 2019, dated 2025).

Sequence of human recombinant DGK ξ (Q13574 whole entry): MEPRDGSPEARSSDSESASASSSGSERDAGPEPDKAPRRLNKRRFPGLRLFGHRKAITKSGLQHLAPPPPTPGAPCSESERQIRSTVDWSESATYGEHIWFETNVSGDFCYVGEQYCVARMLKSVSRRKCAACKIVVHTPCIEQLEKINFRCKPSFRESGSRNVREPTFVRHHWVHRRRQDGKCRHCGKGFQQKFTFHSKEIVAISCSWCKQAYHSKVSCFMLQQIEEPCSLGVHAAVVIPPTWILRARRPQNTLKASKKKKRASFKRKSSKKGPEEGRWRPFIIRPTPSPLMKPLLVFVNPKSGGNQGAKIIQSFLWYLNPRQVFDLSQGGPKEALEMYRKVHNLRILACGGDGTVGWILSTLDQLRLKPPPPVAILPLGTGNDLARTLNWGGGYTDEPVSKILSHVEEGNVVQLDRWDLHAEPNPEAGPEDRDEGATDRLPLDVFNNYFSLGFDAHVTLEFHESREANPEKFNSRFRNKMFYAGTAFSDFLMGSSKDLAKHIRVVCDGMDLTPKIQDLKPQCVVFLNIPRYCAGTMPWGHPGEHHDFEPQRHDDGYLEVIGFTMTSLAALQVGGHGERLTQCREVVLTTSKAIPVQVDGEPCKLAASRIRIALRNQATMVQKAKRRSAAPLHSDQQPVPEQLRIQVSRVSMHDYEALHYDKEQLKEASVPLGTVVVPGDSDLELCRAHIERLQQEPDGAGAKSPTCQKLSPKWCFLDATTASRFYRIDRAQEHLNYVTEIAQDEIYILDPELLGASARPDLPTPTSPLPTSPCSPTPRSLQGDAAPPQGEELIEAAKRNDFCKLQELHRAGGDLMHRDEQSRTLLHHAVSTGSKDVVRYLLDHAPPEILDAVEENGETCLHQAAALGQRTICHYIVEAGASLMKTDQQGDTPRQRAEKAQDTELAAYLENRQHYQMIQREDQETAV

One test addresses human recombinant DGK ξ (Homo sapiens (Human), UniProt Q13574). Description: Evaluation of DGK ξ inhibitory effect (ADP-Glo Kinase Assay). In kind it is biochemical.
Details: not given
The method, then: Test Example 1: Evaluation of DGK ξ Inhibitory Effect
The inhibitory effect of a test compound on human recombinant DGK ξ (Carna Biosciences, Inc., 12-410-20N) was examined by the following method in which detection is performed with ADP-Glo™ Kinase Assay (Promega Corporation).
To a 384-well plate (Greiner Bio-One Co., Ltd.), 3 μL of a […] dissolved in an assay buffer (40 mM Tris-HCl pH 7.5, 10 mM MgCl2, 1 mM dithiothreitol (DTT) and 0.1 mg/mL bovine serum albumin (BSA)) (90 ng/mL) was added, and 3 μL of the test compound diluted with the same assay buffer was added so that an intended final concentration was obtained. The mixture was left standing at room temperature for 15 minutes, 3 μL of a substrate (150 μM 1-oleoyl-2-acetyl-sn-glycerol (Sigma-Aldrich Co. LLC.), 480 μM phosphatidylserine (Avanti Polar Lipids, Inc.) and 150 μM UltraPure-ATP (attached to ADP-Glo)) was then added, and the mixture was left standing at room temperature for 30 minutes to react. Thereafter, 3 μL of an ADP-Glo Reagent was added, and the mixture was left standing at room temperature for 40 minutes to stop the enzyme reaction. Further, 6 μL of a Kinase-Detection Reagent was added, the mixture was left standing at room temperature for 30 minutes, and the luminescence was then measured using ARVO X3 (PerkinElmer, Inc.). The half maximal inhibitory concentration (IC50) was calculated by Sigmoid-Emax model non-linear regression analysis, where the signal value in solvent treatment was set to 0% inhibition and the signal value without addition of the DGK ξ enzyme was set to 100% inhibition. […] In the table, Ex represents the number of each Example described below. Also, in the table, compound C (cpd. C) represents the test compound of the Example 199 described in the international publication WO 2008/054702.
On the technique in general: In ADP-Glo the light output rises with the ADP produced.
`COCCN1CCC2(CC1)CN(c1c(NC(=O)c3csc(-c4ccnnc4)n3)ccc(Oc3ccccc3)c1C(F)(F)F)CCO2` [Example 59, N-{2-[9-(2-methoxyethyl)-1-oxa-4,9-diazaspiro[5.5]undecan-4-yl]-4-phenoxy-3-(trifluoromethyl)phenyl}-2-(pyridazin-4-yl)-1,3-thiazole-4-carboxamide dihydrochloride]: the IC50 (commonly the concentration that inhibits the measured activity by half) turned out to be 2 nM.

For `Cc1c(Oc2ccccc2)ccc(NC(=O)c2csc(-c3ccnnc3)n2)c1N1CCC[C@@H](CN)C1` [Example 72], the IC50 worked out at 18 nM.

Regarding `O=C(Nc1ccc(Oc2ccccc2F)c(C(F)(F)F)c1N1CCC[C@@H]1CNC1COC1)c1csc(-c2ccnnc2)n1` [Example 63, N-[4-(2-fluorophenoxy)-2-[(2R)-2-{[(oxetan-3-yl)amino]methyl}pyrrolidin-1-yl]-3-(trifluoromethyl)phenyl]-2-(pyridazin-4-yl)-1,3-thiazole-4-carboxamide], the IC50 worked out at 429 nM.

Consider `CN(C)C[C@@H]1CN(c2c(NC(=O)c3csc(-c4ccnnc4)n3)ccc(Oc3ccccc3)c2C(F)(F)F)CCO1` [Example 56], for which the IC50 came to 29 nM.

As for `CNC[C@@H]1CCCN(c2c(NC(=O)c3csc(-c4ccnnc4)n3)ccc(Oc3ccc(F)cc3)c2C(F)(F)F)C1` [Example 43], the IC50 turned out to be 36 nM.

For the molecule `Cn1ccc(Oc2ccc(NC(=O)c3csc(-c4ccnnc4)n3)c(N3CCC[C@@H](CN)C3)c2C(F)(F)F)n1` [Example 17], the IC50 worked out at 13 nM.

Turning to `O=C(Nc1cc(F)c(OC2CC2)c(F)c1C1=CCN(Cc2cc[nH]n2)CC1)c1csc(-c2ccnnc2)n1` [Example 5], the IC50 amounted to 48 nM.

For the molecule `O=C(Nc1ccc(Oc2ccccc2)c(C(F)(F)F)c1N1CCOC2(CCNCC2)C1)c1csc(-c2ccnnc2)n1` [Example 12], the half-inhibitory concentration (IC50) worked out at 17 nM.

Consider `N[C@@H]1CCN2CCN(c3c(NC(=O)c4csc(-c5ccnnc5)n4)ccc(OC4CC4)c3C(F)(F)F)C[C@@H]12` [Example 76], for which the IC50 worked out at 6 nM.

Turning to `CN1CCC2(CC1)CN(c1c(NC(=O)c3csc(-c4ccnnc4)n3)ccc(Oc3ccccc3)c1C(F)(F)F)CCO2` [Example 1, N-[2-(9-methyl-1-oxa-4,9-diazaspiro[5.5]undecan-4-yl)-4-phenoxy-3-(trifluoromethyl)phenyl]-2-(pyridazin-4-yl)-1,3-thiazole-4-carboxamide], the IC50 came to 3 nM.

As to `O=C(Nc1ccc(Oc2ccccc2)c(C(F)(F)F)c1C1=CCN(Cc2cc[nH]n2)CC1)c1csc(-c2ccnnc2)n1` [Example 2], the IC50 was 53 nM.

`NC[C@H]1CN(c2c(NC(=O)c3csc(-c4ccnnc4)n3)ccc(Oc3ccccc3)c2C(F)(F)F)CCO1` [Example 27]: the IC50 stood at 90 nM.

For `NCC[C@H]1CCCN1c1c(NC(=O)c2csc(-c3ccnnc3)n2)ccc(Oc2ccccc2)c1C(F)(F)F` [Example 45], the IC50 is 24 nM.

On to `COc1c(Oc2ccccc2)ccc(NC(=O)c2csc(-c3ccnnc3)n2)c1N1CCC[C@@H](CN)C1` [Example 68], for which the IC50 was 5 nM.

Turning to `CN(C)C[C@H]1CCCN(c2c(NC(=O)c3csc(-c4ccnnc4)n3)ccc(Oc3ccccc3)c2C(F)(F)F)C1` [Example 54, N-[2-{(3R)-3-[(dimethylamino)methyl]piperidin-1-yl}-4-phenoxy-3-(trifluoromethyl)phenyl]-2-(pyridazin-4-yl)-1,3-thiazole-4-carboxamide dihydrochloride], the IC50 worked out at 17 nM.

`CN[C@@H]1CCN2CCN(c3c(NC(=O)c4csc(-c5ccnnc5)n4)ccc(Oc4ccccc4)c3C(F)(F)F)C[C@@H]12` [Example 73]: the IC50 was found to be 0.7 nM.

For the molecule `CNC[C@H]1CN(c2c(NC(=O)c3csc(-c4ccnnc4)n3)ccc(Oc3ccccc3)c2C(F)(F)F)CCN1C` [Example 6, N-[2-{(3S)-4-methyl-3-[(methylamino)methyl]piperazin-1-yl}-4-phenoxy-3-(trifluoromethyl)phenyl]-2-(pyridazin-4-yl)-1,3-thiazole-4-carboxamide], the IC50 was 3 nM.

Take `CNC[C@@H]1CCCN(c2c(NC(=O)c3csc(-c4ccnnc4)n3)ccc(Oc3ccccc3F)c2C(F)(F)F)C1` [Example 83, N-[4-(2-fluorophenoxy)-2-{(3S)-3-[(methylamino)methyl]piperidin-1-yl}-3-(trifluoromethyl)phenyl]-2-(pyridazin-4-yl)-1,3-thiazole-4-carboxamide mono[(2E)-but-2-enedioate]]: the IC50 is 5 nM.

Take `CN1CCN(c2c(NC(=O)c3csc(-c4ccnnc4)n3)ccc(Oc3ccccc3)c2C(F)(F)F)C[C@@H]1CN` [Example 8]: the IC50 worked out at 9 nM.

For the molecule `NC[C@H]1CCCN(c2c(NC(=O)c3csc(-c4ccnnc4)n3)ccc(Oc3ccccc3)c2C(F)(F)F)C1` [Example 32], the IC50 came out at 31 nM.

Turning to `CN(C)[C@@H]1CCN2CCN(c3c(NC(=O)c4csc(-c5ccnnc5)n4)ccc(OC4CC4)c3C(F)(F)F)C[C@@H]12` [Example 82], the IC50 worked out at 3 nM.

Consider `O=C(Nc1ccc(Oc2ccccc2)c(C(F)(F)F)c1N1CCOC2(CCN(C3COC3)CC2)C1)c1csc(-c2ccnnc2)n1` [Example 62, N-{2-[9-(oxetan-3-yl)-1-oxa-4,9-diazaspiro[5.5]undecan-4-yl]-4-phenoxy-3-(trifluoromethyl)phenyl}-2-(pyridazin-4-yl)-1,3-thiazole-4-carboxamide], for which the IC50 came to 10 nM.

For the molecule `NC[C@@H]1CCCN(c2c(NC(=O)c3csc(-c4ccnnc4)n3)ccc(Oc3ccccc3F)c2C(F)(F)F)C1` [Example 86], the IC50 is 3 nM.

Consider `O=C(Nc1ccc(Oc2ccccc2)c(C(F)(F)F)c1N1CCOC2(CCN(CCO)CC2)C1)c1csc(-c2ccnnc2)n1` [Example 60], for which the IC50 stood at 3 nM.

With `N[C@H]1CCN2CCN(c3c(NC(=O)c4csc(-c5ccnnc5)n4)ccc(Oc4ccccc4)c3C(F)(F)F)C[C@H]12` [Example 75], the IC50 was found to be 6 nM.

As to `O=C(Nc1ccc(OC2CCC2)c(F)c1C1=CCN(Cc2cc[nH]n2)CC1)c1csc(-c2ccnnc2)n1` [Example 4], the IC50 was determined as 50 nM.

Consider `CNC[C@H]1CCCN1c1c(NC(=O)c2csc(-c3ccnnc3)n2)ccc(Oc2ccccc2F)c1C(F)(F)F` [Example 20], for which the IC50 came out at 44 nM.

In a further test the test system is B16-F1 cells. Description: Antitumor effect in syngeneic mouse model bearing mouse melanoma cell line B16-F1. In kind it is in vivo. The conditions noted are these: relative tumor growth inhibition; B16-F1, oral, 0.1 mg/kg, 1/day, 8 days, 1 × 10^5 cells inoculated. The method, then:
Test Example 4: Evaluation of Antitumor Effect in Syngeneic Mouse Model Bearing Mouse Melanoma Cell Line B16-F1
A cell suspension liquid prepared by suspending B16-F1 cells (ATCC, CRL-6323) in PBS at 2.0×10^6 cells/mL or 1.0×10^7 cells/mL was subcutaneously inoculated into 5-week-old female mice (C57BL/6J from Charles River Laboratories Japan, Inc.) in a volume of 50 μL. 5 days after the inoculation, the mice were grouped in such a manner that there was substantially no difference in tumor volume between groups, and administration of the test compound was started. The test was conducted with a solvent group and a test compound administration group each having 10 mice. 0.5% methylcellulose was orally administered to the solvent group, and 0.5% methylcellulose mixed with the test compound was orally administered to the test compound administration group. The administration was performed according to the regimen described in Table 4, and the tumor diameter and the body weight were measured twice a week. The following expression was used for calculation of the tumor volume. [tumor volume (mm^3)]=[tumor major diameter (mm)]×[tumor minor diameter (mm)]^2×0.5
The relative tumor growth inhibition (%) of the test compound was calculated, where the tumor volume of the test compound administration group immediately before the start of administration was set to 100% inhibition, and the tumor volume of the solvent group on the day after the last administration was set to 0% inhibition. […] In the table, Ex represents the number of each Example described below.
`COCCN1CCC2(CC1)CN(c1c(NC(=O)c3csc(-c4ccnnc4)n3)ccc(Oc3ccccc3)c1C(F)(F)F)CCO2` [Example 59, N-{2-[9-(2-methoxyethyl)-1-oxa-4,9-diazaspiro[5.5]undecan-4-yl]-4-phenoxy-3-(trifluoromethyl)phenyl}-2-(pyridazin-4-yl)-1,3-thiazole-4-carboxamide dihydrochloride] showed an Antitumor effect of 46% Inhibition.

In another test the test system is Jurkat E6.1 cells. Description: Evaluation of IL-2 production in human T cell leukemia cell line Jurkat E6.1 (TCR stimulation anti-CD3/anti-CD28). The test is classed as cell-based. The conditions noted are these: concentration at which IL-2 increased to 10 times the solvent control, Jurkat E6.1, anti-CD3/anti-CD28, 24 hours, read-out: EC10fold. The method, then:
Test Example 2: Evaluation of IL-2 Production in Human T Cell Leukemia Cell Line Jurkat E6.1
The effect of the test compound on the IL-2 production by T cell receptor (TCR) stimulation (anti-CD3/anti-CD28) in Jurkat E6.1 cells (ECACC, 88042803) was evaluated.
A 5 μg/mL anti-CD3 antibody (eBioscience, Inc., OKT3 clone) diluted with phosphate buffer saline (PBS) was added to a 96-well plate (Iwaki & Co., Ltd.) at 50 μL/well, and left standing at 4° C. for 12 hours or more to provide an anti-CD3 antibody-coated plate in advance. When the plate was used for experiments, the plate was washed with 200 μL of PBS once, an anti-CD28 antibody (eBioscience, Inc., 28.2 clone) diluted to a concentration of […] with a culture medium (RPMI1640 (Sigma-Aldrich Co. LLC.) containing 10% fetal bovine serum (Hyclone Laboratories, Inc.)) was then added at 10 μL/well, and the plate was used for assay as a culture plate for TCR stimulation.
Subsequently, the test compound was mixed with Jurkat E6.1 cells in such a manner that an intended final concentration was obtained, and the mixture was plated at 90 μL/well so that the number of cells per well was 1×10^5 (that is, finally the culture was performed at 1×10^5 cells/100 μL/well). For culture cell conditions, the culture was performed at 37° C. in the presence of 5% CO2 using RPMI1640 medium containing 10% fatal bovine serum.
After 24 hours, the culture supernatant was collected, and IL-2 was quantitatively determined using AlphaLISA human IL2 Immunoassay Research Kit (PerkinElmer, Inc.). The IL-2 measurement was performed under Alpha Screen standard setting conditions (the fluorescence intensity at 570 nm was measured with an excitation wavelength of 680 nm) using EnVision 2104-0010 and EnVision 2104-0020 (PerkinElmer, Inc.). The IL-2 quantitative value of the solvent treatment control was set to 1, and the test compound concentration at which the IL-2 quantitative value of the test compound treatment sample increased to 10 times the IL-2 quantitative value of the control (EC10fold) was calculated by inverse estimation with the aid of Sigmoid-Emax model non-linear regression analysis. […] In the table, Ex represents the number of each Example described below.
Regarding `COCCN1CCC2(CC1)CN(c1c(NC(=O)c3csc(-c4ccnnc4)n3)ccc(Oc3ccccc3)c1C(F)(F)F)CCO2` [Example 59, N-{2-[9-(2-methoxyethyl)-1-oxa-4,9-diazaspiro[5.5]undecan-4-yl]-4-phenoxy-3-(trifluoromethyl)phenyl}-2-(pyridazin-4-yl)-1,3-thiazole-4-carboxamide dihydrochloride], the EC50 is 36 nM.
